# Data reported in patent US10100058B2, “Fused heterocyclic compounds as CaM kinase inhibitors” (Gilead Sciences, Inc., priority 2016, dated 2018).
# Target: recombinant CaMKIIδ (Homo sapiens (Human), UniProt Q13557)
# Experiment: CaMKIIδ biochemical assay (HTRF)
# Conditions: 10 pM CaMKIIδ, 110 nM calmodulin, 12 μM ATP, 1 hour; read-out: CAMKIID-HTRF-384V2 (IC50 - nM)
# Experimental: CaMKIIδ Biochemical Assay
# The biochemical activity of recombinant CaMKIIδ was measured by monitoring the phosphorylation of a target peptide using Homogenous Time Resolved Fluorescence (HTRF) technology from CisBio Bioassays.
row,SMILES,IC50 [nM]
1,"CCN(CC)[C@@H](C)CNC(=O)c1cc(-c2cnn3ccc(-c4cccs4)nc23)nc(N2CC(NC(=O)C3CC3)C2)c1 [Example 196, (S)-2-(3-(cyclopropanecarboxamido)azetidin-1-yl)-N-(2-(diethylamino)propyl)-6-(5-(thiophen-2-yl)pyrazolo[1,5-a]pyrimidin-3-yl)isonicotinamide]",0.22
2,"COC1CN(c2cc(C(=O)NCC34CCCN3CCC4)cc(-c3cnn4ccc(-c5ccccc5)nc34)n2)C1 [Example 161, N-((hexahydro-1H-pyrrolizin-7a-yl)methyl)-2-(3-methoxyazetidin-1-yl)-6-(5-phenylpyrazolo[1,5-a]pyrimidin-3-yl)isonicotinamide]",105
3,"CCN(CC)[C@@H](C)CNC(=O)c1cc(-c2cnn3ccc(-c4cccs4)nc23)nc(N2CC(NS(=O)(=O)C(C)C)C2)c1 [Example 183, (S)—N-(2-(diethylamino)propyl)-2-(3-((1-methylethyl)sulfonamido)azetidin-1-yl)-6-(5-(thiophen-2-yl)pyrazolo[1,5-a]pyrimidin-3-yl)isonicotinamide]",0.26
4,"CCN(CC)[C@@H](C)CNC(=O)c1cc(NC(=O)C2CC2)nc(-c2cnn3ccc(-c4cccs4)nc23)c1 [Example 190, (S)-2-(cyclopropanecarboxamido)-N-(2-(diethylamino)propyl)-6-(5-(thiophen-2-yl)pyrazolo[1,5-a]pyrimidin-3-yl)isonicotinamide]",0.16
5,"CCN(CC)[C@@H](C)CNC(=O)c1cc(-c2cnn3ccc(-c4cccs4)nc23)nc(N2CC(C#N)C2)c1 [Example 142, (S)-2-(3-cyanoazetidin-1-yl)-N-(2-(diethylamino)propyl)-6-(5-(thiophen-2-yl)pyrazolo[1,5-a]pyrimidin-3-yl)isonicotinamide]",0.1
6,"CCNC(=O)[C@@H]1CCN1c1cc(C(=O)NC[C@H](C)N(CC)CC)cc(-c2cnn3ccc(-c4cccs4)nc23)n1 [Example 276, N—((S)-2-(diethylamino)propyl)-2-((S)-2-(ethylcarbamoyl)azetidin-1-yl)-6-(5-(thiophen-2-yl)pyrazolo[1,5-a]pyrimidin-3-yl)isonicotinamide]",0.22
7,"CCN(CC)[C@@H](C)CNC(=O)c1cc(N[C@@H](C)C(N)=O)nc(-c2cnn3ccc(-c4cccs4)nc23)c1 [Example 236, 2-(((S)-1-amino-1-oxopropan-2-yl)amino)-N—((S)-2-(diethylamino)propyl)-6-(5-(thiophen-2-yl)pyrazolo[1,5-a]pyrimidin-3-yl)isonicotinamide]",0.83
8,"CC[C@H](CNC(=O)c1cc(-c2cnn3ccc(-c4cccs4)nc23)nc(N2CC[C@H]2C(=O)NC)c1)N(CC)CC (single isomer, unassigned) [Example 356B]",3.04
9,"CCN(CC)[C@@H](C)CNC(=O)c1cc(-c2cnn3ccc(-c4cccs4)nc23)nc(N2CC(F)(F)C2)c1 [Example 148, (S)—N-(2-(diethylamino)propyl)-2-(3,3-difluoroazetidin-1-yl)-6-(5-(thiophen-2-yl)pyrazolo[1,5-a]pyrimidin-3-yl)isonicotinamide]",0.21
10,"CCN(CC)[C@@H](C)CNC(=O)c1cc(-c2cnn3ccc(-c4cccs4)nc23)nc(N2CC(O)(CC)C2)c1 [Example 214, (S)—N-(2-(diethylamino)propyl)-2-(3-ethyl-3-hydroxyazetidin-1-yl)-6-(5-(thiophen-2-yl)pyrazolo[1,5-a]pyrimidin-3-yl)isonicotinamide]",0.18
11,"CN1CCC[C@H]1CNC(=O)c1ccnc(-c2cnn3ccc(-c4cccs4)nc23)c1 [Example 35, (S)—N-((1-methylpyrrolidin-2-yl)methyl)-2-(5-(thiophen-2-yl)pyrazolo[1,5-a]pyrimidin-3-yl)isonicotinamide]",95.5
12,"CCN(CC)[C@@H](C)CNC(=O)c1cc(NCCN2CCOCC2)nc(-c2cnn3ccc(-c4cccs4)nc23)c1 [Example 223, (S)—N-(2-(diethylamino)propyl)-2-((2-morpholinoethyl)amino)-6-(5-(thiophen-2-yl)pyrazolo[1,5-a]pyrimidin-3-yl)isonicotinamide]",0.14
13,"CCN(CC)[C@@H](C)CNC(=O)c1cc(-c2cnn3ccc(-c4cccs4)nc23)nc(N2CC[C@H]2C(=O)N2CCOCC2)c1 [Example 293, N—((S)-2-(diethylamino)propyl)-2-((S)-2-(morpholine-4-carbonyl)azetidin-1-yl)-6-(5-(thiophen-2-yl)pyrazolo[1,5-a]pyrimidin-3-yl)isonicotinamide]",0.16
14,"CCN(CC)[C@@H](C)CNC(=O)c1cc(N[C@H](C)CO)nc(-c2cnn3ccc(-c4cccs4)nc23)c1 [Example 199, N—((S)-2-(diethylamino)propyl)-2-(((R)-1-hydroxypropan-2-yl)amino)-6-(5-(thiophen-2-yl)pyrazolo[1,5-a]pyrimidin-3-yl)isonicotinamide]",0.32
15,"CCN[C@@H](C)CNC(=O)c1cc(N)nc(-c2cnn3ccc(-c4ccccc4)nc23)c1 [Example 121, (S)-2-amino-N-(2-(ethylamino)propyl)-6-(5-phenylpyrazolo[1,5-a]pyrimidin-3-yl)isonicotinamide]",15.7
16,O=C(c1ccnc(-c2cnn3ccc(-c4cccs4)nc23)c1)N1CC2CNC(COC2)C1 (stereo not shown) [Example 81],7.33
17,"CCN(CC)[C@@H](C)CNC(=O)c1cc(NS(=O)(=O)C(C)C)nc(-c2cnn3ccc(-c4cccs4)nc23)c1 [Example 178, (S)—N-(2-(diethylamino)propyl)-2-((1-methylethyl)sulfonamido)-6-(5-(thiophen-2-yl)pyrazolo[1,5-a]pyrimidin-3-yl)isonicotinamide]",1.25
18,"COC1CN(c2cc(C(=O)N3C4CC[C@@H]3CCNC4)cc(-c3cnn4ccc(-c5ccccc5)nc34)n2)C1 (stereo in doubt) [Example 330, (-3,9-diazabicyclo[4.2.1]nonan-9-yl)(2-(3-methoxyazetidin-1-yl)-6-(5-phenylpyrazolo[1,5-a]pyrimidin-3-yl)pyridin-4-yl)methanone]",44.6
19,"NC[C@H]1CCCCN1C(=O)c1cc(-c2cnn3ccc(-c4ccccc4)nc23)nc(C(F)(F)F)c1 [Example 116, (R)-(2-(aminomethyl)piperidin-1-yl)(2-(5-phenylpyrazolo[1,5-a]pyrimidin-3-yl)-6-(trifluoromethyl)pyridin-4-yl)methanone]",5.89
20,"CCN(CC)[C@@H](C)CNC(=O)c1cc(-c2cnn3ccc(-c4cccs4)nc23)nc(N2CC[C@H](C(=O)NC)C2)c1 [Example 310, N—((S)-2-(diethylamino)propyl)-2-((S)-3-(methylcarbamoyl)pyrrolidin-1-yl)-6-(5-(thiophen-2-yl)pyrazolo[1,5-a]pyrimidin-3-yl)isonicotinamide]",0.25
21,"CCN(CC)[C@@H](C)CNC(=O)c1cc(-c2cnn3ccc(-c4cccs4)nc23)nc(N2CC[C@H]2C(=O)N2CC(NS(C)(=O)=O)C2)c1 [Example 286, N—((S)-2-(diethylamino)propyl)-2-((S)-2-(3-(methylsulfonamido)azetidine-1-carbonyl)azetidin-1-yl)-6-(5-(thiophen-2-yl)pyrazolo[1,5-a]pyrimidin-3-yl)isonicotinamide]",0.16
22,"CCN[C@@H](CC)CNC(=O)c1ccnc(-c2cnn3ccc(-c4cccs4)nc23)c1 [Example 30, (S)—N-(2-(ethylamino)butyl)-2-(5-(thiophen-2-yl)pyrazolo[1,5-a]pyrimidin-3-yl)isonicotinamide]",3.67
